Assay results from PubChem BioAssay (NCI).
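1) Cells in 96-well plates. 2) Compound, 48 h, 5 concentrations. 3) Linear interpolation between surrounding doses. 4) Unreached endpoint = highest concentration. The concentration for full growth arrest is given as TGI.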

Tests used:
Test in all cases: inhibition of tumour cell growth, NCI panel, 48 h
[1] = test system: DLD-1 colon
[2] = test system: HT29 colon
[3] = test system: NCI-H226 lung
[4] = test system: SF-539 CNS
[5] = test system: RXF-631 renal
[6] = test system: OVCAR-8 ovarian
[7] = test system: OVCAR-3 ovarian
[8] = test system: SK-MEL-2 melanoma
[9] = test system: MALME-3M melanoma
[10] = test system: XF 498 CNS
[11] = test system: KM12 colon
[12] = test system: HOP-92 NSCLC
[13] = test system: A498 renal
[14] = test system: RXF 393 renal
[15] = test system: CCRF-CEM leukemia
[16] = test system: SN12C renal
[17] = test system: IGROV1 ovarian
[18] = test system: U251 CNS
[19] = test system: SNB-19 CNS
[20] = test system: K-562 leukemia
[21] = test system: HCT-116 colon
[22] = test system: HCT-15 colon
[23] = test system: NCI-H460 lung
[24] = test system: SNB-78 CNS
[25] = test system: RPMI-8226 leukemia
[26] = test system: OVCAR-4 ovarian
[27] = test system: SK-MEL-28 melanoma
[28] = test system: TK-10 renal
[29] = test system: SF-268 CNS
[30] = test system: LXFL 529 NSCLC
[31] = test system: A549 NSCLC
[32] = test system: DMS 114 small cell lung
[33] = test system: ACHN renal
[34] = test system: HOP-62 NSCLC
[35] = test system: 786-0 renal
[36] = test system: UO-31 renal
[37] = test system: CAKI-1 renal
[38] = test system: UACC-257 melanoma
[39] = test system: DMS 273 small cell lung
[40] = test system: SW-620 colon
[41] = test system: LOX IMVI melanoma
[42] = test system: HCC-2998 colon
[43] = test system: COLO 205 colon
[44] = test system: SNB-75 CNS
[45] = test system: NCI-H23 lung
[46] = test system: SR leukemia
[47] = test system: EKVX NSCLC
[48] = test system: SF-295 CNS
[49] = test system: MOLT-4 leukemia
[50] = test system: HL-60(TB) leukemia
[51] = test system: M19-MEL melanoma
[52] = test system: M14 melanoma
[53] = test system: UACC-62 melanoma
[54] = test system: OVCAR-5 ovarian
[55] = test system: HOP-18 NSCLC
[56] = test system: SK-OV-3 ovarian
[57] = test system: SK-MEL-5 melanoma
[58] = test system: MDA-N
[59] = test system: MDA-MB-231 breast
[60] = test system: NCI/ADR-RES ovarian
[61] = test system: HS 578T breast
[62] = test system: PC-3 prostate
[63] = test system: BT-549 breast
[64] = test system: MCF7 breast
[65] = test system: NCI-H522 lung
[66] = test system: MDA-MB-435
[67] = test system: T-47D breast
[68] = test system: DU-145 prostate
[69] = test system: KM20L2 colon

SMILES: CCOC(=O)N1C2C=C(C)C(C3C(C)C(=O)N31)N(C(=O)c1ccccc1)O2 (stereo unspecified)
- TGI [1]: > 100 µM
- TGI [2]: > 100 µM
- TGI [3]: > 100 µM
- TGI [4]: > 100 µM
- TGI [5]: > 100 µM
- TGI [6]: > 100 µM
- TGI [7]: > 100 µM
- TGI [8]: > 100 µM
- TGI [9]: > 100 µM
- TGI [10]: > 100 µM
- TGI [11]: > 100 µM
- TGI [12]: > 100 µM
- TGI [13]: > 100 µM
- TGI [14]: > 100 µM
- TGI [15]: > 100 µM
- TGI [16]: > 100 µM
- TGI [17]: > 100 µM
- TGI [18]: > 100 µM
- TGI [19]: > 100 µM
- TGI [20]: > 100 µM
- TGI [21]: > 100 µM
- TGI [22]: > 100 µM
- TGI [23]: > 100 µM
- TGI [24]: > 100 µM
- TGI [25]: > 100 µM
- TGI [26]: > 100 µM
- TGI [27]: > 100 µM
- TGI [28]: > 100 µM
- TGI [29]: > 100 µM
- TGI [30]: > 100 µM
- TGI [31]: > 100 µM
- TGI [32]: > 100 µM
- TGI [33]: > 100 µM
- TGI [34]: > 100 µM
- TGI [35]: > 100 µM
- TGI [36]: > 100 µM
- TGI [37]: > 100 µM
- TGI [38]: > 100 µM
- TGI [39]: > 100 µM
- TGI [40]: > 100 µM
- TGI [41]: > 100 µM
- TGI [42]: > 100 µM
- TGI [43]: > 100 µM
- TGI [44]: > 100 µM
- TGI [45]: > 100 µM
- TGI [46]: > 100 µM
- TGI [47]: > 100 µM
- TGI [48]: > 100 µM
- TGI [49]: > 100 µM
- TGI [50]: > 100 µM
- TGI [51]: > 100 µM
- TGI [52]: > 100 µM
- TGI [53]: > 100 µM
- TGI [54]: > 100 µM
- TGI [55]: > 100 µM
- TGI [56]: > 100 µM
- TGI [57]: > 100 µM

SMILES: CN(C)c1ccc(/C=C/c2cc[n+](C)c3ccccc23)cc1
- TGI [58]: 9.35 µM
- TGI [59]: 20.3 µM
- TGI [1]: 17.1 µM
- TGI [2]: 12.2 µM
- TGI [3]: 16.2 µM
- TGI [4]: 18.7 µM
- TGI [6]: 10.1 µM
- TGI [7]: 13.5 µM
- TGI [60]: > 100 µM
- TGI [8]: 6.37 µM
- TGI [9]: 17.1 µM
- TGI [11]: 10.7 µM
- TGI [61]: 14 µM
- TGI [12]: 7.85 µM
- TGI [13]: > 58.8 µM
- TGI [14]: 32.8 µM
- TGI [62]: 8.72 µM
- TGI [15]: > 61.9 µM
- TGI [16]: 15 µM
- TGI [63]: 8.44 µM
- TGI [17]: 21 µM
- TGI [18]: 15.9 µM
- TGI [19]: 16.5 µM
- TGI [20]: > 45.1 µM
- TGI [21]: 8.62 µM
- TGI [22]: > 100 µM
- TGI [23]: 14.3 µM
- TGI [24]: 72.4 µM
- TGI [25]: 21.5 µM
- TGI [64]: 7.75 µM
- TGI [26]: 21.4 µM
- TGI [27]: 21.9 µM
- TGI [28]: 25.1 µM
- TGI [29]: 21.5 µM
- TGI [30]: 13.5 µM
- TGI [31]: > 90.8 µM
- TGI [32]: 9.5 µM
- TGI [33]: 36.5 µM
- TGI [34]: 16.3 µM
- TGI [65]: 11.5 µM
- TGI [35]: 17 µM
- TGI [36]: > 73.3 µM
- TGI [37]: 12.2 µM
- TGI [38]: 8.57 µM
- TGI [39]: 10.8 µM
- TGI [40]: 12.9 µM
- TGI [41]: 14.1 µM
- TGI [42]: 17 µM
- TGI [43]: 3.2 µM
- TGI [44]: 12.1 µM
- TGI [66]: 10.2 µM
- TGI [45]: 12.5 µM
- TGI [46]: 6.51 µM
- TGI [47]: > 100 µM
- TGI [48]: > 43.2 µM
- TGI [49]: > 38.3 µM
- TGI [51]: 14.9 µM
- TGI [52]: 15.8 µM
- TGI [53]: 12 µM
- TGI [67]: 16.6 µM
- TGI [54]: 24.9 µM
- TGI [55]: 19.9 µM
- TGI [68]: 52.2 µM
- TGI [56]: 27 µM
- TGI [69]: 13.1 µM
- TGI [57]: 6.21 µM

SMILES: CSc1nc(-c2ccccc2)c2c(n1)-c1ccccc1CC2
- TGI [1]: > 100 µM
- TGI [2]: > 100 µM
- TGI [3]: > 100 µM
- TGI [5]: > 100 µM
- TGI [6]: > 100 µM
- TGI [7]: > 100 µM
- TGI [8]: > 100 µM
- TGI [9]: > 100 µM
- TGI [10]: > 100 µM
- TGI [11]: > 100 µM
- TGI [12]: > 100 µM
- TGI [13]: > 100 µM
- TGI [14]: > 100 µM
- TGI [15]: > 100 µM
- TGI [16]: > 100 µM
- TGI [17]: > 100 µM
- TGI [18]: > 100 µM
- TGI [19]: > 100 µM
- TGI [20]: > 100 µM
- TGI [21]: > 100 µM
- TGI [23]: > 100 µM
- TGI [25]: > 100 µM
- TGI [26]: > 100 µM
- TGI [27]: > 100 µM
- TGI [28]: > 100 µM
- TGI [29]: > 100 µM
- TGI [30]: > 100 µM
- TGI [31]: > 100 µM
- TGI [32]: > 100 µM
- TGI [34]: > 100 µM
- TGI [65]: > 100 µM
- TGI [35]: > 100 µM
- TGI [36]: > 100 µM
- TGI [37]: > 100 µM
- TGI [38]: > 100 µM
- TGI [40]: > 100 µM
- TGI [41]: > 100 µM
- TGI [43]: > 100 µM
- TGI [44]: > 100 µM
- TGI [45]: > 100 µM
- TGI [46]: > 100 µM
- TGI [47]: > 100 µM
- TGI [48]: > 100 µM
- TGI [49]: > 100 µM
- TGI [50]: > 100 µM
- TGI [51]: > 100 µM
- TGI [52]: > 100 µM
- TGI [53]: > 100 µM
- TGI [54]: > 100 µM
- TGI [55]: > 100 µM
- TGI [56]: > 100 µM
- TGI [69]: > 100 µM
- TGI [57]: > 100 µM
